In US6426355B1, “Heterocyclic carboxamide-containing thiourea inhibitors of herpes viruses containing phenylenediamine group” (American Home Products, priority 1998, dated 2002):
Values after ≈ are worked out from the molar mass of the structure shown.

Assays:
[1] = system: HCMV recombinant mutant virus (RV145); assay: HCMV microtiter plate assay (beta-glucuronidase reporter); format: cell-based, Human Cytomegalovirus; conditions: HCMV in human foreskin fibroblasts
Source text: Ninety-six well plate cultures of human foreskin fibroblasts are infected in the presence of inhibitor compound with a HCMV recombinant mutant virus whose genome contains the prokaryotic beta-glucuronidase gene (Jefferson, R. A., S. M. Burgess, and D. Hirsh. 1986. Beta-glucuronidase from Escherichia coli as a gene fusion marker. Proc. Natl. Acad. Sci. USA 83:8447-8451) whose expression is controlled by a viral promoter. An example of such a virus is RV145 (Jones, T. R., V. P. Muzithras, and Y. Gluzman. 1991. Replacement mutagenesis of the human cytomegalovirus genome: US10 and US11 gene products are nonessential. J. Virol. 65:5860-5872). Since it is under the control of a viral promoter, beta-glucuronidase expression is an indirect indicator of growth and replication of HCMV in this assay. At 96 hours post-infection, the infected cell lysates are prepared (using 50 mM sodium phosphate [pH7.0] containing 0.1% Triton X-100 and 0.1% sarkosyl) and assayed for beta-glucuronidase activity using a substrate for the enzyme which when cleaved yields either a product which can be measured colorimetrically in a spectrophotometer or fluorescently in a microfluorimeter. Examples of such substrates are p-nitrophenyl-beta-D-glucuronide and methylumbelliferylglucuronide, respectively. The presence of an antiviral compound is indicated by the reduced expression of the HCMV genome resident beta-glucuronidase gene, compared to the absence of inhibitor. […] Data from this assay generated using varying amounts of inhibitor compound is also used to estimate the IC50 of an inhibitor compound.

HSV-1 = assay: HSV Antiviral (ELISA) assay; format: cell-based; conditions: HSV-1 in Vero cells
Experimental: Vero cells (ATCC #CCL-81) are plated on 96-well tissue culture plates at 3.5×10^4 cells per 100 μl tissue culture DMEM (Dulbecco's modified Eagle media) supplemented with 2% fetal bovine serum (FBS) in each well. After overnight incubation @ 37° C. (in 5% CO2) and 30 minutes prior to infection with HSV-1 (multiplicity of infection equal to 0.006), cells are either untreated, or treated with test compound (multiple concentrations) or reference standard drug control. After approximately 24 hours post-infection incubation @ 37° C. (in 5% CO2), cells are fixed for ELISA assay. The primary antibody is murine anti-HSV glycoprotein D monoclonal primary antibody and the secondary antibody is goat anti-mouse IgG linked to β-galactosidase. Thus the extent of viral replication is determined by assessing β-galactosidase activity by quantifying the generation of the 4-methyl umbelliferone fluorescent cleavage product after addition of the methyl umbelliferyl-β-D-galactoside (Sigma #M1633) substrate on a microfluorimeter (365 nm for excitation and 450 nm for emission). Antiviral activity (IC50) of the test compound is determined by comparing the flourescence obtained in absence of compound to that obtained in the presence of compound.

COc1ccccc1CNC(=S)Nc1ccc(NC(=O)c2csnn2)cc1 [Example 650]
IC50 (ug/ml) HCMV [1]: 0.05 µg/mL (≈ 0.125 µM)
IC50 (ug/ml) HSV (HSV-1): >10 µg/mL

COc1ccccc1CCNC(=S)Nc1ccc(NC(=O)c2csnn2)cc1 [Example 651]
IC50 (ug/ml) HCMV [1]: 0.03 µg/mL (≈ 0.0725 µM)
IC50 (ug/ml) HSV (HSV-1): >10 µg/mL

COc1ccc(CCNC(=S)Nc2ccc(NC(=O)c3csnn3)cc2)cc1 [Example 652]
IC50 (ug/ml) HCMV [1]: 0.03 µg/mL (≈ 0.0725 µM)
IC50 (ug/ml) HSV (HSV-1): >10 µg/mL

CN(C)CCCc1cc(NC(=S)Nc2ccc(NC(=O)c3csnn3)cc2)cc(C(F)(F)F)c1 [Example 654]
IC50 (ug/ml) HCMV [1]: 0.07 µg/mL (≈ 0.138 µM)
IC50 (ug/ml) HSV (HSV-1): >10 µg/mL

O=C(Nc1ccc(NC(=S)NCCSc2ccccc2)cc1)c1csnn1 [Example 655]
IC50 (ug/ml) HCMV [1]: 0.01 µg/mL (≈ 0.0241 µM)
IC50 (ug/ml) HSV (HSV-1): >10 µg/mL

O=C(Nc1ccc(NC(=S)NCCSc2ccccc2)cc1)c1ccco1 [Example 657]
IC50 (ug/ml) HCMV [1]: 0.04 µg/mL (≈ 0.101 µM)
IC50 (ug/ml) HSV (HSV-1): 6 µg/mL (≈ 15.1 µM)

O=C(Nc1ccc(NC(=S)NCc2cccc(I)c2)cc1)c1ccco1 [Example 662]
IC50 (ug/ml) HCMV [1]: 0.03 µg/mL (≈ 0.0628 µM)
IC50 (ug/ml) HSV (HSV-1): >10 µg/mL

O=C(Nc1ccc(NC(=S)NCc2cccc(I)c2)cc1)c1csnn1 [Example 663]
IC50 (ug/ml) HCMV [1]: 0.01 µg/mL (≈ 0.0202 µM)
IC50 (ug/ml) HSV (HSV-1): >10 µg/mL

O=C(Nc1ccc(NC(=S)NCCOc2cc(Cl)cc(Cl)c2)cc1)c1ccco1 [Example 665]
IC50 (ug/ml) HCMV [1]: 0.02 µg/mL (≈ 0.0444 µM)
IC50 (ug/ml) HSV (HSV-1): 5 µg/mL (≈ 11.1 µM)

O=C(Nc1ccc(NC(=S)NCCOc2cccc(Cl)c2)cc1)c1ccco1 [Example 667]
IC50 (ug/ml) HCMV [1]: 0.03 µg/mL (≈ 0.0721 µM)
IC50 (ug/ml) HSV (HSV-1): 8 µg/mL (≈ 19.2 µM)

O=C(Nc1ccc(NC(=S)NCCOc2cccc(Cl)c2)cc1)c1csnn1 [Example 668]
IC50 (ug/ml) HCMV [1]: 0.009 µg/mL (≈ 0.0207 µM)
IC50 (ug/ml) HSV (HSV-1): >10 µg/mL

O=C(Nc1ccc(NC(=S)NCc2cc(C(F)(F)F)ccc2F)cc1)c1ccco1 [Example 670]
IC50 (ug/ml) HCMV [1]: 0.02 µg/mL (≈ 0.0457 µM)
IC50 (ug/ml) HSV (HSV-1): >10 µg/mL

O=C(Nc1ccc(NC(=S)NCc2cc(C(F)(F)F)ccc2F)cc1)c1csnn1 [Example 671]
IC50 (ug/ml) HCMV [1]: 0.005 µg/mL (≈ 0.011 µM)
IC50 (ug/ml) HSV (HSV-1): >10 µg/mL

CN(C)c1cc(CCNC(=S)Nc2ccc(NC(=O)c3csnn3)cc2)cc(C(F)(F)F)c1 [Example 674]
IC50 (ug/ml) HCMV [1]: 0.006 µg/mL (≈ 0.0121 µM)
IC50 (ug/ml) HSV (HSV-1): >10 µg/mL

O=C(Nc1ccc(NC(=S)NCc2ccc(F)c(F)c2)cc1)c1ccco1 [Example 675]
IC50 (ug/ml) HCMV [1]: 0.05 µg/mL (≈ 0.129 µM)
IC50 (ug/ml) HSV (HSV-1): >10 µg/mL

O=C(Nc1ccc(NC(=S)NCc2ccc(F)c(F)c2)cc1)c1csnn1 [Example 676]
IC50 (ug/ml) HCMV [1]: 0.013 µg/mL (≈ 0.0321 µM)
IC50 (ug/ml) HSV (HSV-1): >10 µg/mL

O=C(Nc1ccc(NC(=S)NCCSc2cccc(Br)c2)cc1)c1csnn1 [Example 678]
IC50 (ug/ml) HCMV [1]: 0.005 µg/mL (≈ 0.0101 µM)
IC50 (ug/ml) HSV (HSV-1): >10 µg/mL

O=C(Nc1ccc(NC(=S)NCCSc2cccc(Br)c2)cc1)c1ccco1 [Example 679]
IC50 (ug/ml) HCMV [1]: 0.01 µg/mL (≈ 0.021 µM)
IC50 (ug/ml) HSV (HSV-1): 10 µg/mL (≈ 21 µM)

COc1ccc(CCNC(=S)Nc2ccc(NC(=O)c3csnn3)cc2)cc1Br [Example 681]
IC50 (ug/ml) HCMV [1]: 0.02 µg/mL (≈ 0.0406 µM)
IC50 (ug/ml) HSV (HSV-1): >10 µg/mL

COc1ccc(Br)cc1CCNC(=S)Nc1ccc(NC(=O)c2csnn2)cc1 [Example 682]
IC50 (ug/ml) HCMV [1]: 0.006 µg/mL (≈ 0.0122 µM)
IC50 (ug/ml) HSV (HSV-1): >10 µg/mL

O=C(Nc1ccc(NC(=S)NCCc2ccccc2Cl)cc1)c1csnn1 [Example 683]
IC50 (ug/ml) HCMV [1]: 0.02 µg/mL (≈ 0.0479 µM)
IC50 (ug/ml) HSV (HSV-1): 10 µg/mL (≈ 23.9 µM)

O=C(Nc1ccc(NC(=S)NCCc2ccccc2F)cc1)c1csnn1 [Example 684]
IC50 (ug/ml) HCMV [1]: 0.005 µg/mL (≈ 0.0125 µM)
IC50 (ug/ml) HSV (HSV-1): 10 µg/mL (≈ 24.9 µM)

O=C(Nc1ccc(NC(=S)NCCc2ccc(Cl)cc2)cc1)c1csnn1 [Example 685]
IC50 (ug/ml) HCMV [1]: 0.006 µg/mL (≈ 0.0144 µM)
IC50 (ug/ml) HSV (HSV-1): 10 µg/mL (≈ 23.9 µM)

O=C(Nc1ccc(NC(=S)NCCC(c2ccccc2)c2ccccc2)cc1)c1csnn1 [Example 686]
IC50 (ug/ml) HCMV [1]: 0.007 µg/mL (≈ 0.0148 µM)
IC50 (ug/ml) HSV (HSV-1): >10 µg/mL

O=C(Nc1ccc(NC(=S)NCCOc2cc(Cl)cc(Cl)c2)cc1)c1csnn1 [Example 688]
IC50 (ug/ml) HCMV [1]: 0.006 µg/mL (≈ 0.0128 µM)
IC50 (ug/ml) HSV (HSV-1): >10 µg/mL

O=C(Nc1ccc(NC(=S)NCc2ccc(F)c(Cl)c2)cc1)c1csnn1 [Example 689]
IC50 (ug/ml) HCMV [1]: 0.007 µg/mL (≈ 0.0166 µM)
IC50 (ug/ml) HSV (HSV-1): 7 µg/mL (≈ 16.6 µM)

CC(C)(C)c1ccc(CNC(=S)Nc2ccc(NC(=O)c3csnn3)cc2)cc1 [Example 690]
IC50 (ug/ml) HCMV [1]: 0.004 µg/mL (≈ 0.0094 µM)
IC50 (ug/ml) HSV (HSV-1): 7 µg/mL (≈ 16.4 µM)

Cc1cc(C)cc(CNC(=S)Nc2ccc(NC(=O)c3csnn3)cc2)c1 [Example 691]
IC50 (ug/ml) HCMV [1]: 0.008 µg/mL (≈ 0.0201 µM)
IC50 (ug/ml) HSV (HSV-1): >10 µg/mL

Cc1cc(CCNC(=S)Nc2ccc(NC(=O)c3csnn3)cc2)ccc1N(C)C [Example 692]
IC50 (ug/ml) HCMV [1]: 0.04 µg/mL (≈ 0.0908 µM)
IC50 (ug/ml) HSV (HSV-1): 6 µg/mL (≈ 13.6 µM)

O=C(Nc1ccc(NC(=S)NCCOc2ccc(Br)cc2)cc1)c1csnn1 [Example 693]
IC50 (ug/ml) HCMV [1]: 0.03 µg/mL (≈ 0.0627 µM)
IC50 (ug/ml) HSV (HSV-1): >10 µg/mL

O=C(Nc1ccc(NC(=S)NCCOc2ccc(I)cc2)cc1)c1csnn1 [Example 694]
IC50 (ug/ml) HCMV [1]: 0.04 µg/mL (≈ 0.0761 µM)
IC50 (ug/ml) HSV (HSV-1): 10 µg/mL (≈ 19 µM)

O=C(Nc1ccc(NC(=S)NCCOc2ccc(Br)cc2)cc1)c1ccco1 [Example 697]
IC50 (ug/ml) HCMV [1]: 0.04 µg/mL (≈ 0.0869 µM)
IC50 (ug/ml) HSV (HSV-1): 7 µg/mL (≈ 15.2 µM)

O=C(Nc1ccc(NC(=S)NCCOc2ccc(I)cc2)cc1)c1ccco1 [Example 698]
IC50 (ug/ml) HCMV [1]: 0.04 µg/mL (≈ 0.0788 µM)
IC50 (ug/ml) HSV (HSV-1): 6 µg/mL (≈ 11.8 µM)

O=C(Nc1ccc(NC(=S)Nc2ccc(Cl)c(Cl)c2)cc1)c1cocn1 [Example 699]
IC50 (ug/ml) HCMV [1]: 0.016 µg/mL (≈ 0.0393 µM)
IC50 (ug/ml) HSV (HSV-1): >10 µg/mL

O=C(Nc1ccc(NC(=S)Nc2cc(Cl)cc(Cl)c2)cc1)c1cscn1 [Example 700]
IC50 (ug/ml) HCMV [1]: 0.004 µg/mL (≈ 0.00945 µM)
IC50 (ug/ml) HSV (HSV-1): >10 µg/mL

O=C(Nc1ccc(NC(=S)Nc2cc(C(F)(F)F)cc(C(F)(F)F)c2)cc1)c1cscn1 [Example 701]
IC50 (ug/ml) HCMV [1]: 0.008 µg/mL (≈ 0.0163 µM)
IC50 (ug/ml) HSV (HSV-1): >10 µg/mL

O=C(Nc1ccc(NC(=S)Nc2cc(Cl)cc(Cl)c2)cc1)c1cocn1 [Example 702]
IC50 (ug/ml) HCMV [1]: 0.01 µg/mL (≈ 0.0246 µM)
IC50 (ug/ml) HSV (HSV-1): 4 µg/mL (≈ 9.82 µM)

O=C(Nc1ccc(NC(=S)NCCOc2ccc(Cl)c(Cl)c2)cc1)c1csnn1 [Example 703]
IC50 (ug/ml) HCMV [1]: 0.007 µg/mL (≈ 0.0149 µM)
IC50 (ug/ml) HSV (HSV-1): >10 µg/mL

O=C(Nc1ccc(NC(=S)Nc2ccc(Cl)c(Cl)c2)cc1)c1cscn1 [Example 704]
IC50 (ug/ml) HCMV [1]: 0.006 µg/mL (≈ 0.0142 µM)
IC50 (ug/ml) HSV (HSV-1): >10 µg/mL

O=C(Nc1ccc(NC(=S)Nc2ccc(Cl)c(C(F)(F)F)c2)cc1)c1cscn1 [Example 705]
IC50 (ug/ml) HCMV [1]: 0.006 µg/mL (≈ 0.0131 µM)
IC50 (ug/ml) HSV (HSV-1): >10 µg/mL

O=C(Nc1ccc(NC(=S)NCCNc2ccccc2)cc1)c1csnn1 [Example 706]
IC50 (ug/ml) HCMV [1]: 0.04 µg/mL (≈ 0.1 µM)
IC50 (ug/ml) HSV (HSV-1): >10 µg/mL

O=C(Nc1ccc(NC(=S)NCCc2ccc(Cl)cc2Cl)cc1)c1csnn1 [Example 707]
IC50 (ug/ml) HCMV [1]: 0.005 µg/mL (≈ 0.0111 µM)
IC50 (ug/ml) HSV (HSV-1): >10 µg/mL

O=C(Nc1ccc(NC(=S)NCCc2cccc(C(F)(F)F)c2)cc1)c1csnn1 [Example 708]
IC50 (ug/ml) HCMV [1]: 0.005 µg/mL (≈ 0.0111 µM)
IC50 (ug/ml) HSV (HSV-1): >10 µg/mL
